Experimental findings from US12723063B2, “GIPR-agonist compounds” (Eli Lilly and Company, priority 2019, dated 2026) are described below.

Assay in all cases: cAMP functional assay (HTRF) in HEK293 cells in presence of 0.1% casein
Type in all cases: cell-based
Background: TR-FRET usually uses a lanthanide donor and a delayed reading to cut background.

Assay [1] concerns the target T1, human glucagon receptor (GcgR) (Homo sapiens, UniProt P47871).
T1 construct: expressed in transfected cells; host or cells: HEK293
The following applies: HEK293 cells expressing human GcgR, geometric mean, read-out: hGcgR cAMP Rel EC50 nM (SEM, n).

Assay [2] has as its target T2, human glucose-dependent insulinotropic peptide receptor (GIPR) (Homo sapiens, UniProt P48546).
T2 construct: expressed in transfected cells; host or cells: HEK293
T2 sequence (P48546 22-466): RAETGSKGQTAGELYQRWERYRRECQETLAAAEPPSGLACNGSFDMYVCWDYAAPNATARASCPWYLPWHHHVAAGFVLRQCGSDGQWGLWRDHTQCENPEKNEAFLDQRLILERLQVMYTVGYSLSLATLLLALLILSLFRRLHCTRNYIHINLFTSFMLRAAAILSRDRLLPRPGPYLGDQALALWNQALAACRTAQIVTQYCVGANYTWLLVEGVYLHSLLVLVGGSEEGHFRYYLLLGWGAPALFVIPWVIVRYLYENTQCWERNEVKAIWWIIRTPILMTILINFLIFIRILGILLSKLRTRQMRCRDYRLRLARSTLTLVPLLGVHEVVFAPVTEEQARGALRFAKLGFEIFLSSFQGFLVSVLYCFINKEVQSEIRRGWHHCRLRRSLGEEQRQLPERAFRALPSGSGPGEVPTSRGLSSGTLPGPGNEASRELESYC
The settings on record: HEK293 cells expressing human GIPR, geometric mean, read-out: hGIPR cAMP Rel EC50 nM (SEM, n).

Assay [3] addresses T3, human GLP-1 receptor (GLP-1R) (Homo sapiens, UniProt P43220).
T3 construct: expressed in transfected cells; host or cells: HEK293
The settings on record: HEK293 cells expressing human GLP-1R, geometric mean, read-out: hGLP1R cAMP Rel EC50 nM (SEM, n).

Each structure is given as a SMILES string. *1 amine or outer side, *2 acyl side, *3 side chain or, on linkers, in order; H or OH if unused. Where a SMILES comes first, the peptide text is derived from it. Side-chain parts run from the residue outwards. [ ]: non-standard residue; d: D form. The star is where a group is joined. C20 diacid = O=C(O)CCCCCCCCCCCCCCCCCCC(=O)*; C18 diacid = O=C(O)CCCCCCCCCCCCCCCCC(=O)*; αMePhe(2-F) = C[C@](N)(Cc1ccccc1F)C(=O)O; γGlu = O=C(O)[C@H](CCC(=O)[*:2])N[*:1]; αMeF = C[C@](N)(Cc1ccccc1)C(=O)O; AEEA = NCCOCCOCC(=O)O; Aib = CC(C)(N)C(=O)O

As a reminder, the EC50 is the concentration needed to bring the measured effect to its halfway point.

T3 sequence (P43220 24-463): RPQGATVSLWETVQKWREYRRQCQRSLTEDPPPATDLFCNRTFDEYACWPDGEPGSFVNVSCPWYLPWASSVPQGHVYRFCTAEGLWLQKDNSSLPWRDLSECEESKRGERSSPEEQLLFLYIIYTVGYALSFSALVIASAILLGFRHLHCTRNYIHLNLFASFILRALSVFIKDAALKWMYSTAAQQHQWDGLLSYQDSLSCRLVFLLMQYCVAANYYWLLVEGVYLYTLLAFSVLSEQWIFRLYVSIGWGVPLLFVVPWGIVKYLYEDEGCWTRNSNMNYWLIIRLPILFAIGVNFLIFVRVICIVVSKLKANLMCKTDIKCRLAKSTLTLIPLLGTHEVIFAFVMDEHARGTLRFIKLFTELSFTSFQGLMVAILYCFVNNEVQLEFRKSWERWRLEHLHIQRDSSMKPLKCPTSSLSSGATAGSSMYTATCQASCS
T1 sequence (P47871 26-477): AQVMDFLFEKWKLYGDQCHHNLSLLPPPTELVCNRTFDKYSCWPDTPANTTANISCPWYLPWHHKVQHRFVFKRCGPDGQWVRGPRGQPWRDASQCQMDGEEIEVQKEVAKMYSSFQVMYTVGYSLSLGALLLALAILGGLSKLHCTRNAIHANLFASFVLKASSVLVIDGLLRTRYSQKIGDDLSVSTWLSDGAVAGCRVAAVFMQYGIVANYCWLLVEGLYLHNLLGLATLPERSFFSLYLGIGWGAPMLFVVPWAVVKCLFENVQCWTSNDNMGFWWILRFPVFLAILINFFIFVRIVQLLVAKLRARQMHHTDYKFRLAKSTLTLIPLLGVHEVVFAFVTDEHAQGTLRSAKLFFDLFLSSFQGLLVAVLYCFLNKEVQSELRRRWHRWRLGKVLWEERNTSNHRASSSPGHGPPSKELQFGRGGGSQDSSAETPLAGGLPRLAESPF

As for `CC[C@H](C)[C@H](NC(=O)[C@H](CCCCN)NC(=O)[C@H](CC(=O)O)NC(=O)[C@H](CC(C)C)NC(=O)[C@H](CC(C)C)NC(=O)[C@@H](NC(=O)[C@H](CO)NC(=O)[C@H](Cc1ccc(O)cc1)NC(=O)[C@H](CC(=O)O)NC(=O)[C@H](CO)NC(=O)[C@@H](NC(=O)[C@H](Cc1ccccc1)NC(=O)[C@@H](NC(=O)CNC(=O)[C@H](CCC(=O)O)NC(=O)[C@@H](C)NC(=O)[C@@H](N)Cc1ccc(O)cc1)[C@@H](C)O)[C@@H](C)CC)[C@@H](C)CC)C(=O)N[C@@H](C)C(=O)N[C@@H](CCC(N)=O)C(=O)NC(C)(C)C(=O)N[C@@H](CC(=O)O)C(=O)N[C@@H](Cc1ccccc1)C(=O)N[C@H](C(=O)N[C@@H](CC(N)=O)C(=O)N[C@@H](Cc1c[nH]c2ccccc12)C(=O)N[C@@H](CCCCNC(=O)COCCOCCNC(=O)COCCOCCNC(=O)CC[C@H](NC(=O)CCCCCCCCCCCCCCCCC(=O)O)C(=O)O)C(=O)N[C@@H](CC(C)C)C(=O)N[C@@H](C)C(=O)N[C@@H](CCC(N)=O)C(=O)NCC(=O)N1CCC[C@H]1C(=O)N[C@@H](CO)C(=O)N[C@@H](CO)C(=O)NCC(=O)N[C@@H](C)C(=O)N1CCC[C@H]1C(=O)N1CCC[C@H]1C(=O)N1CCC[C@H]1C(=O)N[C@@H](CO)C(N)=O)C(C)C` [Example 93] (H-Y[dA]EGTFISDYSILLDKIAQ[Aib]DFVNWK([AEEA-AEEA-γGlu-C18 diacid])LAQGPSSGAPPPS-NH2), the figures for the EC50 in assay [1], in assay [2] and in assay [3] were more than 5000 nM, 0.00482 nM and 884 nM, respectively.

Consider `CC[C@H](C)[C@H](NC(=O)[C@H](CO)NC(=O)[C@H](Cc1ccc(O)cc1)NC(=O)[C@H](CC(=O)O)NC(=O)[C@H](CO)NC(=O)[C@@H](NC(=O)[C@](C)(Cc1ccccc1F)NC(=O)[C@@H](NC(=O)CNC(=O)[C@H](CCC(=O)O)NC(=O)C(C)(C)NC(=O)[C@@H](N)Cc1ccc(O)cc1)[C@@H](C)O)[C@@H](C)CC)C(=O)N[C@@H](C)C(=O)N[C@@H](CC(C)C)C(=O)N[C@@H](CC(=O)O)C(=O)N[C@@H](CCCCN)C(=O)N[C@H](C(=O)N[C@@H](Cc1c[nH]cn1)C(=O)N[C@@H](CCC(N)=O)C(=O)NC(C)(C)C(=O)N[C@@H](CCC(=O)O)C(=O)N[C@@H](Cc1ccccc1)C(=O)N[C@H](C(=O)N[C@@H](CC(N)=O)C(=O)N[C@@H](Cc1ccc(O)cc1)C(=O)N[C@@H](CCCCNC(=O)COCCOCCNC(=O)COCCOCCNC(=O)CC[C@H](NC(=O)CCCCCCCCCCCCCCCCC(=O)O)C(=O)O)C(=O)N[C@@H](CC(C)C)C(=O)N[C@@H](C)C(=O)NCC(=O)NCC(=O)N1CCC[C@H]1C(=O)N[C@@H](CO)C(=O)N[C@@H](CO)C(=O)NCC(=O)N[C@@H](C)C(=O)N1CCC[C@H]1C(=O)N1CCC[C@H]1C(=O)N1CCC[C@H]1C(=O)N[C@@H](CO)C(N)=O)C(C)C)[C@@H](C)CC` [Example 94] (H-Y[Aib]EGT[αMePhe(2-F)]ISDYSIALDKIHQ[Aib]EFVNYK([AEEA-AEEA-γGlu-C18 diacid])LAGGPSSGAPPPS-NH2), for which the EC50 in assay [1] is more than 5000 nM; in assay [2], 0.00436 nM; in assay [3] it was 1090 nM.

Regarding `CC[C@H](C)[C@H](NC(=O)[C@H](CO)NC(=O)[C@H](Cc1ccc(O)cc1)NC(=O)[C@H](CC(=O)O)NC(=O)[C@H](CO)NC(=O)[C@@H](NC(=O)[C@](C)(Cc1ccccc1F)NC(=O)[C@@H](NC(=O)CNC(=O)[C@H](CCC(=O)O)NC(=O)C(C)(C)NC(=O)[C@@H](N)Cc1ccc(O)cc1)[C@@H](C)O)[C@@H](C)CC)C(=O)N[C@@H](C)C(=O)N[C@@H](CC(C)C)C(=O)N[C@@H](CC(=O)O)C(=O)N[C@@H](CCCCN)C(=O)N[C@H](C(=O)N[C@@H](Cc1c[nH]cn1)C(=O)N[C@@H](CCC(N)=O)C(=O)NC(C)(C)C(=O)N[C@@H](CCC(=O)O)C(=O)N[C@@H](Cc1ccccc1)C(=O)N[C@H](C(=O)N[C@@H](CC(N)=O)C(=O)N[C@@H](Cc1ccc(O)cc1)C(=O)N[C@@H](CCCCNC(=O)COCCOCCNC(=O)COCCOCCNC(=O)CC[C@H](NC(=O)CCCCCCCCCCCCCCCCCCC(=O)O)C(=O)O)C(=O)N[C@@H](CC(C)C)C(=O)N[C@@H](CCC(=O)O)C(=O)NCC(=O)NCC(=O)N1CCC[C@H]1C(=O)N[C@@H](CO)C(=O)N[C@@H](CO)C(=O)NCC(=O)N[C@@H](C)C(=O)N1CCC[C@H]1C(=O)N1CCC[C@H]1C(=O)N1CCC[C@H]1C(=O)N[C@@H](CO)C(N)=O)C(C)C)[C@@H](C)CC` [Example 95] (H-Y[Aib]EGT[αMePhe(2-F)]ISDYSIALDKIHQ[Aib]EFVNYK([AEEA-AEEA-γGlu-C20 diacid])LEGGPSSGAPPPS-NH2), the EC50 in assay [1] is more than 5000 nM; in assay [2], 0.0272 nM; in assay [3], more than 5000 nM.

Consider `CC[C@H](C)[C@H](NC(=O)[C@H](CO)NC(=O)[C@H](Cc1ccc(O)cc1)NC(=O)[C@H](CC(=O)O)NC(=O)[C@H](CO)NC(=O)[C@@H](NC(=O)[C@H](Cc1ccccc1)NC(=O)[C@@H](NC(=O)CNC(=O)[C@H](CCC(=O)O)NC(=O)C(C)(C)NC(=O)[C@@H](N)Cc1ccc(O)cc1)[C@@H](C)O)[C@@H](C)CC)C(=O)N[C@@H](C)C(=O)N[C@@H](CC(C)C)C(=O)N[C@@H](CC(=O)O)C(=O)N[C@@H](CCCCN)C(=O)N[C@H](C(=O)N[C@@H](Cc1c[nH]cn1)C(=O)N[C@@H](CCC(N)=O)C(=O)NC(C)(C)C(=O)N[C@@H](CCC(=O)O)C(=O)N[C@@H](Cc1ccccc1)C(=O)N[C@H](C(=O)N[C@@H](CC(N)=O)C(=O)N[C@@H](Cc1ccc(O)cc1)C(=O)N[C@@H](CCCCNC(=O)COCCOCCNC(=O)COCCOCCNC(=O)CC[C@H](NC(=O)CCCCCCCCCCCCCCCCCCC(=O)O)C(=O)O)C(=O)N[C@@H](CC(C)C)C(=O)N[C@@H](C)C(=O)NCC(=O)NCC(=O)N1CCC[C@H]1C(=O)N[C@@H](CO)C(=O)N[C@@H](CO)C(=O)NCC(=O)N[C@@H](C)C(=O)N1CCC[C@H]1C(=O)N1CCC[C@H]1C(=O)N1CCC[C@H]1C(=O)N[C@@H](CO)C(N)=O)C(C)C)[C@@H](C)CC` [Example 96] (H-Y[Aib]EGTFISDYSIALDKIHQ[Aib]EFVNYK([AEEA-AEEA-γGlu-C20 diacid])LAGGPSSGAPPPS-NH2), for which the EC50 in assay [1] was more than 5000 nM; in assay [2] it was 0.0251 nM; in assay [3] it was more than 5000 nM.

Take `CC[C@H](C)[C@H](NC(=O)[C@H](CO)NC(=O)[C@H](Cc1ccc(O)cc1)NC(=O)[C@H](CC(=O)O)NC(=O)[C@H](CO)NC(=O)[C@@H](NC(=O)[C@](C)(Cc1ccccc1)NC(=O)[C@@H](NC(=O)CNC(=O)[C@H](CCC(=O)O)NC(=O)C(C)(C)NC(=O)[C@@H](N)Cc1ccc(O)cc1)[C@@H](C)O)[C@@H](C)CC)C(=O)N[C@@H](C)C(=O)N[C@@H](CC(C)C)C(=O)N[C@@H](CC(=O)O)C(=O)N[C@@H](CCCCN)C(=O)N[C@H](C(=O)N[C@@H](Cc1c[nH]cn1)C(=O)N[C@@H](CCC(N)=O)C(=O)NC(C)(C)C(=O)N[C@@H](CCC(=O)O)C(=O)N[C@@H](Cc1ccccc1)C(=O)N[C@H](C(=O)N[C@@H](CC(N)=O)C(=O)N[C@@H](Cc1ccc(O)cc1)C(=O)N[C@@H](CCCCNC(=O)COCCOCCNC(=O)COCCOCCNC(=O)CC[C@H](NC(=O)CCCCCCCCCCCCCCCCCCC(=O)O)C(=O)O)C(=O)N[C@@H](CC(C)C)C(=O)N[C@@H](C)C(=O)NCC(=O)NCC(=O)N1CCC[C@H]1C(=O)N[C@@H](CO)C(=O)N[C@@H](CO)C(=O)NCC(=O)N[C@@H](C)C(=O)N1CCC[C@H]1C(=O)N1CCC[C@H]1C(=O)N1CCC[C@H]1C(=O)N[C@@H](CO)C(N)=O)C(C)C)[C@@H](C)CC` [Example 97] (H-Y[Aib]EGT[αMeF]ISDYSIALDKIHQ[Aib]EFVNYK([AEEA-AEEA-γGlu-C20 diacid])LAGGPSSGAPPPS-NH2): the EC50 in assay [1] is more than 5000 nM; in assay [2] it was 0.009 nM; in assay [3], 2510 nM.

In the case of `CC[C@H](C)[C@H](NC(=O)[C@H](CO)NC(=O)[C@H](Cc1ccc(O)cc1)NC(=O)[C@H](CC(=O)O)NC(=O)[C@H](CO)NC(=O)[C@@H](NC(=O)[C@](C)(Cc1ccccc1F)NC(=O)[C@@H](NC(=O)CNC(=O)[C@H](CCC(=O)O)NC(=O)C(C)(C)NC(=O)[C@@H](N)Cc1ccc(O)cc1)[C@@H](C)O)[C@@H](C)CC)C(=O)N[C@@H](C)C(=O)N[C@@H](CC(C)C)C(=O)N[C@@H](CC(=O)O)C(=O)N[C@@H](CCCCN)C(=O)N[C@H](C(=O)N[C@@H](Cc1c[nH]cn1)C(=O)N[C@@H](CCC(N)=O)C(=O)NC(C)(C)C(=O)N[C@@H](CCC(=O)O)C(=O)N[C@@H](Cc1ccccc1)C(=O)N[C@H](C(=O)N[C@@H](CC(N)=O)C(=O)N[C@@H](Cc1ccc(O)cc1)C(=O)N[C@@H](CCCCNC(=O)COCCOCCNC(=O)COCCOCCNC(=O)CC[C@H](NC(=O)CCCCCCCCCCCCCCCCCCC(=O)O)C(=O)O)C(=O)N[C@@H](CC(C)C)C(=O)N[C@@H](C)C(=O)NCC(=O)NCC(=O)N1CCC[C@H]1C(=O)N[C@@H](CO)C(=O)N[C@@H](CO)C(=O)NCC(=O)N[C@@H](C)C(=O)N1CCC[C@H]1C(=O)N1CCC[C@H]1C(=O)N1CCC[C@H]1C(=O)N[C@@H](CO)C(N)=O)C(C)C)[C@@H](C)CC` [Example 98] (H-Y[Aib]EGT[αMePhe(2-F)]ISDYSIALDKIHQ[Aib]EFVNYK([AEEA-AEEA-γGlu-C20 diacid])LAGGPSSGAPPPS-NH2), the EC50 in assay [1] was more than 5000 nM; in assay [2] it was 0.00718 nM; in assay [3] it was 649 nM.
